Assay results published in US20110144160A1, “Antagonists of Prostaglandin D2 Receptors” (Amira Pharmaceuticals, Inc., priority 2008, published 2011).

Each compound was assayed against T1, human DP2 receptor (Homo sapiens, UniProt Q9Y5Y4) (assay: DP2/CRTH2 binding assay ([3H]PGD2 radioligand)). Settings: membranes of HEK293 cells expressing recombinant human DP2, 1 nM [3H]PGD2; read-out: hDP2.
T1 construct: expressed in transfected cells
T1 sequence (Q9Y5Y4 1-395): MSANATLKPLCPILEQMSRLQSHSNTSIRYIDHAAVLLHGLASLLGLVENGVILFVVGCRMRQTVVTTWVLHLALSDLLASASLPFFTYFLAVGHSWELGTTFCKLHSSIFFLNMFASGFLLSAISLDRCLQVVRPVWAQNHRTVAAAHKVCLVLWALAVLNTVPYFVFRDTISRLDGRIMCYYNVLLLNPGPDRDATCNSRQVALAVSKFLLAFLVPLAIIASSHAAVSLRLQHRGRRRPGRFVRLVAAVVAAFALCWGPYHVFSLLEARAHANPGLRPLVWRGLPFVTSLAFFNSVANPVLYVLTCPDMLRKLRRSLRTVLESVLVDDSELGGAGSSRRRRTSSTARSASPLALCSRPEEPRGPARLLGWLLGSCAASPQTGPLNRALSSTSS
Description: The ability of a compound to bind to the human DP2 receptor is assessed via a radioligand binding assay using [^3H]PGD2. HEK293 cells stably expressing recombinant human DP2 are resuspended in 10 mM Hepes, 7.4 containing 1 mM DTT, lysed and centrifuged at 75,000×g to pellet the membranes. The membranes are resuspended in 10 mM Hepes, 7.4 containing 1 mM DTT and 10% glycerol to approximately 5 mg protein/ml. Membranes (2-10 μg protein/well) are incubated in 96-well plates with 1 nM [^3H]PGD2 and test compound in Assay Buffer (50 mM Hepes, 10 mM MnCl2, 1 mM EDTA, plus or minus 0.2% human serum albumin, pH 7.4) for 60 minutes at room temperature. The reactions are terminated by rapid filtration through Whatman GF/C glass fibre filter plates. The filter plates were pre-soaked in 0.33% polythylenimine for 30 minutes at room temperature then washed in Wash Buffer (50 mM Hepes, 0.5 M NaCl pH 7.4) prior to harvesting. After harvesting, the filter plates are washed 3 times with 1 ml cold Wash Buffer then dried. Scintillant is then added to the plates and the radioactivity retained on the filters is determined on a Packard TopCount (Perkin Elmer). Specific binding is determined as total radioactive binding minus non-specific binding in the presence of 10 μM PGD2. IC50s were determined using GraphPad prism analysis of drug titration curves.

Compound | IC50
COc1ccc(CC(=O)O)cc1Oc1ccc(NC(=O)C(C)(C)C)cc1CSc1ccc(Cl)cc1 [Compound 5, {3-[2-(4-chloro-phenylsulfanylmethyl)-4-(2,2-dimethyl-propionylamino)-phenoxy]-4-methoxy-phenyl}-acetic acid] | < 300 nM
COc1ccc(CC(=O)O)cc1Oc1ccc(NC(=O)NCc2ccccc2)cc1CSc1ccc(Cl)cc1 [Compound 6, {3-[4-(3-benzyl-ureido)-2-(4-chloro-phenylsulfanylmethyl)-phenoxy]-4-methoxy-phenyl}-acetic acid] | < 300 nM
COc1ccc(CC(=O)O)cc1Oc1ccc(NC(=O)C(C)(C)C)cc1CSC(C)C [Compound 9, {3-[4-(2,2-Dimethyl-propionylamino)-2-isopropylsulfanylmethyl-phenoxy]-4-methoxy-phenyl}-acetic acid] | < 300 nM
COc1ccc(CC(=O)O)cc1Oc1ccc(NC(=O)C(C)(C)C)cc1CS(=O)(=O)C(C)C [Compound 10, {3-[4-(2,2-Dimethyl-propionylamino)-2-(propane-2-sulfonylmethyl)-phenoxy]-4-methoxy-phenyl}-acetic acid] | < 300 nM
COc1ccc(CC(=O)O)cc1Oc1ccc(NC(=O)C(C)(C)C)cc1CS(=O)(=O)CC(F)(F)F [Compound 12, {3-[4-(2,2-Dimethyl-propionylamino)-2-(trifluoro-ethanesulfonylmethyl)-phenoxy]-4-methoxy-phenyl}-acetic acid] | < 300 nM
COc1ccc(CC(=O)O)cc1Oc1ccc(NC(=O)CC(C)(C)C)cc1CSCC(F)(F)F [Compound 16, {3-[4-(3,3-Dimethyl-butyrylamino)-2-(2,2,2-trifluoro-ethylsulfanylmethyl)-phenoxy]-4-methoxy-phenyl}-acetic acid] | < 300 nM
COc1ccc(CC(=O)O)cc1Oc1ccc(NC(=O)c2ccc(Cl)cc2)cc1CSC(C)C [Compound 20, {3-[4-(4-Chloro-benzoylamino)-2-isopropylsulfanylmethyl-phenoxy]-4-methoxy-phenyl}-acetic acid] | < 300 nM
COc1ccc(CC(=O)O)cc1Oc1ccc(NC(=O)c2ccc(Cl)cc2)cc1C[S+]([O-])C(C)C (stereo not drawn) [Compound 21, {3-[4-(4-Chloro-benzoylamino)-2-(propane-2-sulfinylmethyl)-phenoxy]-4-methoxy-phenyl}-acetic acid] | < 300 nM
COc1ccc(CC(=O)O)cc1Oc1ccc(NC(=O)c2ccc(Cl)cc2)cc1CS(=O)(=O)C(C)C [Compound 22, {3-[4-(4-Chloro-benzoylamino)-2-(propane-2-sulfonylmethyl)-phenoxy]-4-methoxy-phenyl}-acetic acid] | < 300 nM
COc1ccc(CC(=O)O)cc1Oc1ccc(NC(=O)c2ccc(Cl)cc2)cc1CS(=O)(=O)c1ccccc1 [Compound 24, {3-[2-Benzenesulfonylmethyl-4-(4-chloro-benzoylamino)-phenoxy]-4-methoxy-phenyl}-acetic acid] | < 300 nM
CCNC(=O)c1ccc(Oc2cc(CC(=O)O)ccc2OC)c(CSC(C)C)c1 [Compound 25, [3-(4-Ethylcarbamoyl-2-isopropylsulfanylmethyl-phenoxy)-4-methoxy-phenyl]-acetic acid] | < 300 nM
COc1ccc(CC(=O)O)cc1Oc1ccc(C(=O)NCc2ccc(Cl)cc2)cc1CSC(C)C [Compound 26, {3-[4-(4-Chloro-benzylcarbamoyl)-2-isopropylsulfanylmethyl-phenoxy]-4-methoxy-phenyl}-acetic acid] | < 300 nM
CC(C)S(=O)(=O)Cc1cc(NC(=O)C(C)(C)C)ccc1Oc1cc(Cl)cc(CC(=O)O)c1 [Compound 31, {3-Chloro-5-[4-(2,2-dimethyl-propionylamino)-2-(propane-2-sulfonylmethyl)-phenoxy]-phenyl}-acetic acid] | < 300 nM
CC(C)(C)C(=O)Nc1ccc(Oc2cc(CC(=O)O)cc(C(F)(F)F)c2)c(CS(=O)(=O)CC(F)(F)F)c1 [Compound 33, {3-[4-(2,2-Dimethyl-propionylamino)-2-(trifluoro-ethanesulfonylmethyl)-phenoxy]-5-trifluoromethyl-phenyl}-acetic acid] | < 300 nM
COc1ccc(CC(=O)O)cc1Oc1ccc(N(C)C(=O)C(C)(C)C)cc1CSCC(F)(F)F [Compound 34, {3-[4-[(2,2-Dimethyl-propionyl)-methyl-amino]-2-(2,2,2-trifluoro-ethylsulfanylmethyl)-phenoxy]-4-methoxy-phenyl}-acetic acid] | < 300 nM
COc1ccc(CC(=O)O)cc1Oc1ccc(NC(=O)C2CC2)cc1CSC(C)(C)C [Compound 35, {3-[2-tert-butylsulfanylmethyl-4-(cyclopropanecarbonyl-amino)-phenoxy]-4-methoxy-phenyl}-acetic acid] | < 300 nM

The remaining lines, values ahead:

IC50 | Compound
< 300 nM | COc1ccc(CC(=O)O)cc1Oc1ccc(NC(=O)NCc2ccccc2)cc1CSCC(F)(F)F [Compound 3, {3-[4-(3-benzyl-ureido)-2-(2,2,2-trifluoro-ethylsulfanylmethyl)-phenoxy]-4-methoxy-phenyl}-acetic acid]
< 300 nM | COc1ccc(CC(=O)O)cc1Oc1ccc(NC(=O)c2ccc(Cl)cc2)cc1CSc1ccc(Cl)cc1 [Compound 4, {3-[4-(4-Chloro-benzoylamino)-2-(4-chloro-phenylsulfanylmethyl)-phenoxy]-4-methoxy-phenyl}-acetic acid]
< 300 nM | COc1ccc(CC(=O)O)cc1Oc1ccc(NC(=O)c2ccc(Cl)cc2)cc1CSC(C)(C)C [Compound 8, {3-[2-tert-butylsulfanylmethyl-4-(4-chloro-benzoylamino)-phenoxy]-4-methoxy-phenyl}-acetic acid]
< 300 nM | COc1ccc(CC(=O)O)cc1Oc1ccc(NC(=O)C(C)(C)C)cc1C[S+]([O-])C(C)C (stereo not drawn) [Compound 11, {3-[4-(2,2-Dimethyl-propionylamino)-2-(propane-2-sulfinylmethyl)-phenoxy]-4-methoxy-phenyl}-acetic acid]
< 300 nM | COc1ccc(CC(=O)O)cc1Oc1ccc(NC(=O)NCc2ccccc2)cc1CSC(C)(C)C [Compound 13, {3-[4-(3-benzyl-ureido)-2-tert-butylsulfanylmethyl-phenoxy]-4-methoxy-phenyl}-acetic acid]
< 300 nM | COc1ccc(CC(=O)O)cc1Oc1ccc(NC(=O)C2CC2)cc1CSCC(F)(F)F [Compound 14, {3-[4-(Cyclopropanecarbonyl-amino)-2-(2,2,2-trifluoro-ethylsulfanylmethyl)-phenoxy]-4-methoxy-phenyl}-acetic acid]
< 300 nM | COc1ccc(CC(=O)O)cc1Oc1ccc(NC(=O)C(C)C)cc1CSCC(F)(F)F [Compound 15, {3-[4-isobutyrylamino-2-(2,2,2-trifluoro-ethylsulfanylmethyl)-phenoxy]-4-methoxy-phenyl}-acetic acid]
< 300 nM | COc1ccc(CC(=O)O)cc1Oc1ccc(NC(=O)c2ccc(Cl)cc2)cc1C[S+]([O-])c1ccccc1 (stereo not drawn) [Compound 23, {3-[2-Benzenesulfinylmethyl-4-(4-chloro-benzoylamino)-phenoxy]-4-methoxy-phenyl}-acetic acid]
< 300 nM | COc1ccc(CC(=O)O)cc1Oc1ccc(C(=O)NCCc2ccc(F)cc2)cc1CSC(C)C [Compound 27, (3-{4-[2-(4-Fluoro-phenyl)-ethylcarbamoyl]-2-isopropylsulfanylmethyl-phenoxy}-4-methoxy-phenyl)-acetic acid]
< 300 nM | CC(C)(C)C(=O)Nc1ccc(Oc2cc(Cl)cc(CC(=O)O)c2)c(CSCC(F)(F)F)c1 [Compound 28, {3-Chloro-5-[4-(2,2-dimethyl-propionylamino)-2-(2,2,2-trifluoro-ethylsulfanylmethyl)-phenoxy]-phenyl}-acetic acid]
< 300 nM | CC(C)(C)C(=O)Nc1ccc(Oc2cc(Cl)cc(CC(=O)O)c2)c(CS(=O)(=O)CC(F)(F)F)c1 [Compound 29, {3-Chloro-5-[4-(2,2-dimethyl-propionylamino)-2-(trifluoro-ethanesulfonylmethyl)-phenoxy]-phenyl}-acetic acid]
< 300 nM | COc1ccc(CC(=O)O)cc1Oc1ccc(NC(=O)C(C)C)cc1CSC(C)(C)C [Compound 36, [3-(2-tert-Butylsulfanylmethyl-4-isobutyrylamino-phenoxy)-4-methoxy-phenyl]-acetic acid]
< 300 nM | COc1ccc(CC(=O)O)cc1Oc1ccc(NC(=O)CC(C)(C)C)cc1CSC(C)(C)C [Compound 37, {3-[2-tert-Butylsulfanylmethyl-4-(3,3-dimethyl-butyrylamino)-phenoxy]-4-methoxy-phenyl}-acetic acid]
300 to 1000 nM | COc1ccc(CC(=O)O)cc1Oc1ccc(N2CCOC2=O)cc1CSCC(F)(F)F [Compound 38, {4-Methoxy-3-[4-(2-oxo-oxazolidin-3-yl)-2-(2,2,2-trifluoro-ethylsulfanylmethyl)-phenoxy}-phenyl]-acetic acid]
